Assay results published in ChEMBL document CHEMBL1201862, “PubChem BioAssay data set” (2004).
Active and inactive are the calls of the source.

Columns and labels:
[1] = biological target: Melanocortin receptor 4 (Homo sapiens, UniProt P32245); test: MC4R antagonist potency on cAMP, dose response, cell-based, TR-FRET, biased antagonists (AID 602298); type: functional;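 note: antagonist potency against agonist-stimulated cAMP production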
[2] = nonselective inhibitors of cellular cAMP signaling, dose response, counter-screen for MC4R biased antagonist project, cell-based, TR-FRET cAMP detection (AID 602305); type: functional;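 note: U2OS cells stimulated with forskolin near its EC80 as the cAMP inducer; potency is for inhibition of forskolin-stimulated cAMP signaling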
[3] = biological target: Melanin-concentrating hormone receptor 1 (Homo sapiens, UniProt Q99705); test: Late-stage fluorescence-based counterscreen for antagonists of the G-protein coupled receptor 7 (GPR7): cell-based dose response assay to identify antagonists of the melanin-concentrating hormone receptor 1 (MCHR1) Set 5.; type: functional
Sequence of Melanin-concentrating hormone receptor 1 (Q99705 whole entry): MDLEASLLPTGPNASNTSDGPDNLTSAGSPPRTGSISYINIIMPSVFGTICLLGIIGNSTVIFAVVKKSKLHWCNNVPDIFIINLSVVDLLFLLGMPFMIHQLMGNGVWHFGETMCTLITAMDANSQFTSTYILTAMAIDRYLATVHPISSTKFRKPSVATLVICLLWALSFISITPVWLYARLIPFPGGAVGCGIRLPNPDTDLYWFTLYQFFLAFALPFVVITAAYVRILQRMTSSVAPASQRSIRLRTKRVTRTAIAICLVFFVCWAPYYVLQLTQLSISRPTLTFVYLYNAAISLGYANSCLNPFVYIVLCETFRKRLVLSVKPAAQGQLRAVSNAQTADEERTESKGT

[4] = biological target: Neuropeptides B/W receptor type 1 (Homo sapiens, UniProt P48145); test: GPR7 antagonist potency, late-stage follow-up, cell-based, fluorescence, dose response, set 5 (AID 588566); type: functional
Sequence of Neuropeptides B/W receptor type 1 (P48145 whole entry): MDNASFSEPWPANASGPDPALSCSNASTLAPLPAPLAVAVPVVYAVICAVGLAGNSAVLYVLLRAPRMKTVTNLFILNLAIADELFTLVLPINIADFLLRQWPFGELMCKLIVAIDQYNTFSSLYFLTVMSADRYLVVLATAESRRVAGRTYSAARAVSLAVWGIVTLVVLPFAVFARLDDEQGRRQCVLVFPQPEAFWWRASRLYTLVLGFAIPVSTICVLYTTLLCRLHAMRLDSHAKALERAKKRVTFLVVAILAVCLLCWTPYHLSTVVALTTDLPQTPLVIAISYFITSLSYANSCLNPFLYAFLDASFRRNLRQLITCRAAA

[5] = Late-stage results from the probe development effort to identify antagonists of the G-protein coupled receptor 7 (GPR7): luminescence-based cell-based dose response counterscreen assay to determine cytotoxicity of antagonist compounds Set 3.; type: functional
[6] = microbe, parasite or virus in culture; type: functional; conditions: Mycobacterium tuberculosis
[7] = cytotoxicity toward NIH3T3 fibroblasts, dose response, counter-screen, cell-based, ATP luminescence, mouse fibroblasts (AID 2010); type: functional;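 note: cells exposed to compound for about 90 hours before reading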
[8] = biological target: T1, High affinity choline transporter 1 (Homo sapiens, UniProt Q9GZV3); test: CHT activators, dose response, cell-based, 10-point CRC, membrane potential dye (AID 602376); type: functional
T1 sequence (Q9GZV3 whole entry): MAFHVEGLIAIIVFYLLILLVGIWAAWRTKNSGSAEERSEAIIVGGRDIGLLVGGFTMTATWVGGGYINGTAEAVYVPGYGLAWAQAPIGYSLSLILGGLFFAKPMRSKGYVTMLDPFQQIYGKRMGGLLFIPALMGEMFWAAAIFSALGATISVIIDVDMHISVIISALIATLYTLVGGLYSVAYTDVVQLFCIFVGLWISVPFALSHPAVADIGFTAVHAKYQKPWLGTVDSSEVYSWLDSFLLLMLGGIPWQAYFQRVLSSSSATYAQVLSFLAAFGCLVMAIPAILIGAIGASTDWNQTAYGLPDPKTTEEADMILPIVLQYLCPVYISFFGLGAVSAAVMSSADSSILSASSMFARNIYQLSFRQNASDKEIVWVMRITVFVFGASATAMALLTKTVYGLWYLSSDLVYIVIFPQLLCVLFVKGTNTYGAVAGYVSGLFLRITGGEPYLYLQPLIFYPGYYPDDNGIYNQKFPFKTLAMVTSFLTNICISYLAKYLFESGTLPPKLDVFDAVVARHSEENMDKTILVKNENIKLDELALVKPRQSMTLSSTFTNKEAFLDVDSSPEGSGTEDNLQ

[9] = inhibitors of intracellular T. cruzi replication, confirmation, NIH3T3 host cells, beta-gal luminescence (AID 2044); type: functional, cell-based;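 note: intracellular parasites grown in NIH/3T3 mouse fibroblasts as host cells; luminescent beta-galactosidase reporter signal from transgenic T. cruzi replicating inside host cells; inhibitors lower the luminescence signal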
[10] = biological target: Protein kinase C zeta type (Homo sapiens, UniProt Q05513); type: functional;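 note: measured as one member of a broad kinase profiling panel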
Sequence of Protein kinase C zeta type (Q05513 whole entry): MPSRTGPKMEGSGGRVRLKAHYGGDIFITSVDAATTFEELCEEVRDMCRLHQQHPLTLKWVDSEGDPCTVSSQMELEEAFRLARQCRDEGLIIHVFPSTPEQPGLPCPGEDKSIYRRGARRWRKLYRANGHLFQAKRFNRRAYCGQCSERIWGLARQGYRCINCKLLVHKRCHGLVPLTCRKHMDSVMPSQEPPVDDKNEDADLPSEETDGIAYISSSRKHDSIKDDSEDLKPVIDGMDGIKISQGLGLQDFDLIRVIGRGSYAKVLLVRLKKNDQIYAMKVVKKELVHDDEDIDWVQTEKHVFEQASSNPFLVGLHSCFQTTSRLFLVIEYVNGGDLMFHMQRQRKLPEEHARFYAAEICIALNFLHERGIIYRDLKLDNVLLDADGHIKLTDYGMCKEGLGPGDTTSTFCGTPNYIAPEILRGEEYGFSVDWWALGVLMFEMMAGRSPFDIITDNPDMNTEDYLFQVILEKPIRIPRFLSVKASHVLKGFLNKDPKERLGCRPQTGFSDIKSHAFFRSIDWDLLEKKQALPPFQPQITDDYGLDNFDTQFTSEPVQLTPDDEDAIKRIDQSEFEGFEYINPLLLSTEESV

[11] = biological target: G protein-coupled receptor kinase 5 (Homo sapiens, UniProt P34947); test: Navigating the Kinome. Panel member name: GPRK5; type: functional
Sequence of G protein-coupled receptor kinase 5 (P34947 whole entry): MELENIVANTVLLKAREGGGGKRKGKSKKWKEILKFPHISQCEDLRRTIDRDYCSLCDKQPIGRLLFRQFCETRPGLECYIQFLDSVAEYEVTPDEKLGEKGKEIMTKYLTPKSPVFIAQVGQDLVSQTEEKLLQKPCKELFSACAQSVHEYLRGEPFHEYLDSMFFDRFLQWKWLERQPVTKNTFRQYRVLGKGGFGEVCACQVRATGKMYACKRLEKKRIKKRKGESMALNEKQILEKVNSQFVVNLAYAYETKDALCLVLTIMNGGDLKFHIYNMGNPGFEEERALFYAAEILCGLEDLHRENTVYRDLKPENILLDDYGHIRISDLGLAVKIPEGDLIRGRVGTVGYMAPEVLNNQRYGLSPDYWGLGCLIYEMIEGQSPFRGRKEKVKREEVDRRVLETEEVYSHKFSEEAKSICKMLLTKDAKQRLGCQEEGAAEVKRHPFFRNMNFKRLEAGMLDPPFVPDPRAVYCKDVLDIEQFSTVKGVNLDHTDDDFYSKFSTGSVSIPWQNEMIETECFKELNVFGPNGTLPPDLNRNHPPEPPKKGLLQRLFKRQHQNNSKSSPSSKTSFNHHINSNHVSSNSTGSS

[12] = biological target: MAP kinase-activated protein kinase 3 (Homo sapiens, UniProt Q16644); type: functional;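 note: value comes from a kinome-wide profiling panel in which MAPKAPK3 is one of the panel members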
Sequence of MAP kinase-activated protein kinase 3 (Q16644 whole entry): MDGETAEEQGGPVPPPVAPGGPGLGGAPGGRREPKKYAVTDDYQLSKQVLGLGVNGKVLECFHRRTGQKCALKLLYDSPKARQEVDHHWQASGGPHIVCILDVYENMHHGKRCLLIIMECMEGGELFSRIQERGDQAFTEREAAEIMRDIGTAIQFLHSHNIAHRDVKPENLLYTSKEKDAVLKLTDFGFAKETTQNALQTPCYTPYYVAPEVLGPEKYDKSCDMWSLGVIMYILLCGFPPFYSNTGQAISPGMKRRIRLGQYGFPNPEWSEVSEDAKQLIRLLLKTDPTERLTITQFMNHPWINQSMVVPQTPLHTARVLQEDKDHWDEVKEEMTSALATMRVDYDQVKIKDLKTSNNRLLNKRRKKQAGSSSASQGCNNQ

[13] = biological target: Protein kinase C gamma type (Homo sapiens, UniProt P05129); type: functional

Sequence of Melanocortin receptor 4 (P32245 whole entry): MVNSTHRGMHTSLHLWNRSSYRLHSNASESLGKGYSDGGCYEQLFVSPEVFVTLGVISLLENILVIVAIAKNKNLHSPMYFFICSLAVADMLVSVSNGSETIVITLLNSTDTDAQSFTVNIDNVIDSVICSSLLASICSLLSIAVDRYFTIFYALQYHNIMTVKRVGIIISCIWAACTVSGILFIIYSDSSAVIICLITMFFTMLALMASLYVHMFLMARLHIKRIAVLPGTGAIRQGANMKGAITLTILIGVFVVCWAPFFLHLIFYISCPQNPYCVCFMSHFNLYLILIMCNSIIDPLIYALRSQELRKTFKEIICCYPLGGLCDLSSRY

CC(=O)Oc1ccc2nc(-c3ccco3)oc(=O)c2c1
IC50 [1]: > 64.6 µM (inactive)
IC50 [2]: > 64.6 µM (inactive)

CS(=O)(=O)c1ccc(Oc2c(Cl)cnn(Cc3cccc4ccccc34)c2=O)cc1
IC50 [3]: 2.46 µM (active)
IC50 [4]: 1.13 µM (active)

COc1ccc(Oc2c(Cl)cnn(C3c4ccccc4-c4ccccc43)c2=O)cc1
CC50 [5]: > 20 µM (inactive)

Cc1ccc(-n2c(C)cc(/C=N/NC(N)=S)c2C)cc1
CC50 [6]: > 40 µM (active)
EC50 [7]: > 60 µM (inconclusive)
EC50 [8]: 9.06 µM (active)
EC50 [9]: 0.315 µM (active)

CCN(CCO)CCCOc1ccc2c(Nc3cc(CC(=O)Nc4cccc(F)c4)[nH]n3)ncnc2c1 [DEFOSBARASERTIB]
Ki [10]: > 7.94 µM (inactive)
Ki [11]: > 3.98 µM (inactive)
Ki [12]: > 10 µM (inactive)
Ki [13]: > 7.94 µM (inactive)
